Experimental data reported in ChEMBL document CHEMBL5726833, “Heterocyclic compounds useful as pim kinase inhibitors” (2018).

Key:
[1] = molecular target: Serine/threonine-protein kinase pim-3 (Homo sapiens, UniProt Q86V86); assay: (§1) Enzyme Assay: Pim-1 and Pim-3 kinase assays—20 μL reactions were run in white 384 well polystyrene plates dotted with 0.8 μL compound/DMSO in the assay buffer (50 mM Tris, pH 7.5, 0.01% Tween-20, 5 mM mgCl2, 0.01% BSA, 5 mM DTT), containing 0.05 μM Biotin-labeled BAD peptide substrate (AnaSpec 62269), 1 mM ATP, and 2.5 pM (Pim-1, Invitrogen PV3503) or 1.25 pM (Pim-3, Millipore 14-738) enzyme for 1 h at 25° C. Reactions were stopped by addition of 10 μL STOP Buffer (150 mM Tris, pH=7.5, 150 mM NaCl, 75 mM EDTA, 0.01% Tween-20, 0.3% BSA,) supplemented with Phospho-Bad (Ser112) Antibody (Cell Signaling 9291) diluted 666-fold, and Streptavidin donor beads (PerkinElmer 6760002) along with Protein-A acceptor beads (PerkinElmer 6760137) at […] each. Supplementation of the STOP buffer with beads and stopping the reactions were done under reduced light. Prior to the stopping reactions STOP buffer with beads was preincubated for 1 h in the dark at room temperature. After stopping the reactions, plates were incubated for 1 h in the dark at room temperature before reading on a PHERAstar FS plate reader (BMG Labtech) under reduced light.
[2] = molecular target: Serine/threonine-protein kinase pim-1 (Homo sapiens, UniProt P11309); assay: as §1
[3] = molecular target: Serine/threonine-protein kinase pim-2 (Homo sapiens, UniProt Q9P1W9); assay: Kinase Assay: Pim-2 kinase assay—20 μL reactions were run in white 384 well polystyrene plates dotted with 0.8 μL compound/DMSO in the assay buffer (50 mM Tris, pH 7.5, 0.01% Tween-20, 5 mM mgCl2, 0.01% BSA, 5 mM DTT), containing 0.05 μM Fluorescein-labeled CREBtide peptide substrate (Invitrogen PV3508), 1 mM ATP, and 1 nM enzyme (Invitrogen PV3649) for 2 h at 25° C. Reactions were stopped by addition of 10 μL TR-FRET Dilution Buffer (Invitrogen PV3574) with 30 mM EDTA and 1.5 nM LanthaScreen Tb-CREB pSer133 antibody (Invitrogen PV3566). After 30 min. incubation at room temperature, plates were read on a PHERAstar FS plate reader (BMG Labtech).
Sequence of Serine/threonine-protein kinase pim-2 (Q9P1W9 whole entry): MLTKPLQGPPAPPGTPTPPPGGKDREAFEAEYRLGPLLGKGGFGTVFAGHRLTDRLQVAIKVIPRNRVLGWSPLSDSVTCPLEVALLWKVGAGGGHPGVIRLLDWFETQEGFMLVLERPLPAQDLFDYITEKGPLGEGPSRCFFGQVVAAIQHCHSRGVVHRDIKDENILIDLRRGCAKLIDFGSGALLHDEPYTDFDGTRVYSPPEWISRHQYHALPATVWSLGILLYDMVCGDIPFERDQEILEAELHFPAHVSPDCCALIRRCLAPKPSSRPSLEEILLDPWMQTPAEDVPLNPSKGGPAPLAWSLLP

Sequence of Serine/threonine-protein kinase pim-1 (P11309 whole entry): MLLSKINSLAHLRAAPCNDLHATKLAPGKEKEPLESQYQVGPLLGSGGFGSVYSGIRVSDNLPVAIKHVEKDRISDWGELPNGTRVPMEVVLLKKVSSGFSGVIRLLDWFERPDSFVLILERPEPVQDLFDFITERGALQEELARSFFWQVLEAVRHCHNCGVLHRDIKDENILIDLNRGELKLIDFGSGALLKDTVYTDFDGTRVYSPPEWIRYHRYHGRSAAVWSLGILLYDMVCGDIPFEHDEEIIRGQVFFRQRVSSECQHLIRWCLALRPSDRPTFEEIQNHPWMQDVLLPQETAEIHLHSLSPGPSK

C[C@@H]1C[C@H](N)C[C@H](c2ccncc2NC(=O)c2ccc(F)c3cc(-c4c(F)cccc4F)cnc23)C1 was tested, and the IC50 [1] was < 10 nM, the IC50 [2] was < 10 nM and the IC50 [3] was < 100 nM.
